Consider 14 compounds from PubChem BioAssay (NCI).

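Following 48 hours of exposure in 96-well plates, responses at five concentrations were used to interpolate endpoints linearly. GI50 = concentration required for 50% inhibition of growth. TGI denotes the concentration required for complete inhibition of growth.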 Where only a bound is given, the exact number is not on record here.

Holding throughout (test): NCI anticancer screen, dose series, 48 h
The subject of assay [1] is MOLT-4 leukemia.
Assay [2] concerns CCRF-CEM leukemia.
In assay [3] the test system is UACC-62 melanoma.
Assay [4] relates to U251 CNS.
Assay [5] relates to SK-OV-3 ovarian.
The subject of assay [6] is SR leukemia.
Assay [7] relates to MDA-MB-435.
Assay [8] relates to KM12 colon.
Assay [9] concerns HOP-92 NSCLC.
The test system of assay [10] is SK-MEL-2 melanoma.

Take `CCCCCCCC(CC(=O)NC(CO)C(=O)NC(CO)CC(C)C)OC(=O)CC(CCCCCCC)OC(=O)CC(CCCCCCC)OC1OC(C)C(O)C(OC2OC(C)C(O)C(O)C2OC(C)=O)C1O` (stereo not given): the TGI in assay [1] was found to be 10.5 µM; in assay [2], 11.8 µM; in assay [3], 18.6 µM; in assay [4], 20.1 µM; in assay [5], 30.3 µM; in assay [6], 4.93 µM. In addition, the TGI in assay [7] came out at 13.8 µM; in [8] it was 10.8 µM; in assay [9], 22 µM.
Turning to `O=c1oc2ccc([N+](=O)[O-])cc2c(Nc2ccc3c(c2)Sc2ccccc2O3)c1[N+](=O)[O-]`, the TGI in assay [2] was determined as 50.4 µM; in assay [3], 32.3 µM; in [4] it was 33.6 µM; in assay [5] it was 47.6 µM; in [6] it was 55.2 µM; in assay [7], 85 µM. Moreover, the TGI in [10] stood at 40.4 µM; in assay [8] it was 49.8 µM; in assay [9] it was 41.6 µM.
Regarding `C=C1C(=O)O[C@H]2[C@H]3O[C@@H](C[C@@H]12)[C@@]1(C)CC[C@H](O1)[C@H](C)CCC[C@H]3C`, the TGI in assay [2] is 2.99 µM; in assay [3], 6.32 µM; in assay [4], 2.82 µM; in assay [5], 19.5 µM; in [6], 0.448 µM; in assay [7], 2.61 µM. Moreover, the TGI came out at 4.62 µM in [10], 4.05 µM in [8] and 3.48 µM in assay [9].
Turning to `C=CC(OC(C)=O)c1ccc(OC(=O)C(C)C)c(OC)c1` (stereo not given), the TGI in [1] is 36.2 µM; in [2], 5.03 µM; in assay [3], 31.5 µM; in assay [4], 7.07 µM; in [5], 30.3 µM; in assay [7], 15.6 µM. Besides, the TGI in [10] stood at 15.8 µM; in [8] it was 7.2 µM; in assay [9] it was 11.5 µM.
With `CCOC(=O)c1cc(I)c(-c2cc(C)no2)n1C`, the TGI in [1] was 71.6 µM; in assay [2], > 100 µM; in assay [3], > 100 µM; in assay [4], > 100 µM; in assay [5], > 100 µM; in assay [7], > 100 µM. The results for the TGI in assay [10], in assay [8] and in [9] were > 100 µM, 49.3 µM and > 100 µM, respectively.
For the compound `Nc1ccccc1.[C-]#[O+].[C-]#[O+].[C-]#[O+].[C-]#[O+].[C-]#[O+].[Cr]`, the GI50 in assay [1] was 3.26 µM; in [2], 2.93 µM; in [3], 2.42 µM; in [4] it was 9.45 µM; in assay [5], 5.66 µM; in assay [6] it was 4.64 µM. Moreover, the GI50 in [7] is 3.67 µM; in [10], 3.91 µM; in [8], 7.97 µM. Moreover, the TGI was > 10 µM in [1]; > 10 µM in [2]; 9.64 µM in [3]; > 10 µM in assay [4]; > 10 µM in assay [5]; > 10 µM in assay [6]. Besides, the TGI in [7], in assay [10] and in [8] was > 10 µM each time.
Consider `COc1cc(O)c2c(=O)c3c(C)cccc3n(C)c2c1`, for which the TGI in assay [1], in assay [2], in assay [3], in assay [4], in [5] and in assay [7] was > 10 µM in each case. In addition, the TGI in assay [10], in assay [8] and in assay [9] was > 10 µM in each case.
Regarding `COc1cc2oc(=O)cc(C)c2cc1O`, the TGI in assay [1], in [2], in assay [4], in assay [6], in assay [7] and in assay [10] was > 100 µM throughout. Also, the TGI in assay [8] and in assay [9] was > 100 µM throughout.
Turning to `COC(=O)CCc1ccc2c(c1)C(=O)CC2`, the TGI in assay [1], in [2], in assay [4], in assay [5], in assay [6] and in [7] was > 100 µM throughout. For the same compound, the TGI in assay [10] and in [9] was > 100 µM in each case.
In the case of `O=C(NC1CCCCC1)c1cc2ccccc2cc1O`, the TGI in assay [2] was > 100 µM; in assay [3], > 100 µM; in assay [4], > 100 µM; in [5], > 100 µM; in [6], 87.2 µM; in [7], > 100 µM. For the same compound, the TGI is 44.7 µM in [10], > 100 µM in [8] and 65.1 µM in [9].
As to `CCOP(=O)(OCC)C(c1ccccc1)N(C(=O)NC(F)(F)F)c1cccc(F)c1` (stereo not given), the TGI in [1], in assay [2], in assay [4], in assay [6], in [7] and in assay [8] was > 100 µM in each case.
On to `CCOC(=O)c1nc2ccccc2nc1Oc1ccc(C(=O)OC)cc1`, for which the TGI in [1], in assay [2], in assay [3], in [4], in assay [5] and in assay [7] was > 100 µM throughout. Moreover, the TGI in assay [10], in assay [8] and in assay [9] was > 100 µM in each case.
Turning to `O=c1sc2c(s1)-c1sc(=O)sc1SS2`, the TGI in [1] is > 100 µM; in assay [2], > 96 µM; in assay [3], > 100 µM; in [4] it was > 31.6 µM; in assay [5], > 100 µM; in [7], > 100 µM. Further, the TGI in assay [10], in assay [8] and in assay [9] was > 100 µM throughout.
As for `O=c1[nH]c(=O)n(C2CC(O)C(CO)O2)cc1NN=NCCCc1ccccc1` (stereo not given), the TGI in assay [1], in assay [2], in assay [3], in [5], in assay [6] and in assay [7] was > 100 µM throughout. In addition, the TGI in [10], in assay [8] and in assay [9] was > 100 µM throughout.
